Laboratory results from patent US20230364196A1, “METHODS FOR TREATING GRAFT-VERSUS-HOST DISEASE USING GLP-2 AGONISTS AND ANALOGUES THEREOF” (THE TRUSTEES OF COLUMBIA UNIVERSITY IN THE CITY OF NEW YORK, priority 2021, published 2023).
Entries after “also recorded” stand apart in the source; their conditions may differ.

Assays:
Type in all cases: in vivo, mouse
intestinal microbiota = assay: Intestinal microbiota by 16S rRNA sequencing of stool after lethal TBI and syngeneic transplantation
Protocol: Mice undergoing lethal TBI were treated with daily S.C. injections with Elsiglutide (GLP-2) and their stool collected for 16s rRNA sequencing on D+0 (baseline), D+14 and D+28 post-transplant.
To assess potential mechanisms for the differences in macrophage and T-cell phenotype, we examined the impact of GLP-2 on the intestinal microbiota. A syngeneic BALB/cJ model (similar to Example 1) was used to explore the effects of GLP-2 independent of GVHD. Stool samples from D+0, D+14, and D+28 were subjected to 16S rRNA sequencing. Vehicle-treated mice had distinct […] clusters at all time-points, showing a transplant effect on the microbiota (FIG. 28A). […] These taxa have been associated with anti-inflammatory properties and A. muciniphila abundance is linked to epithelial mucin production, which is increased by GLP-2.

healthy BALB/c mice = assay: Escalating elsiglutide doses in healthy mice (no irradiation or transplant)
Protocol: In this experiment elsiglutide at escalating doses (200-800 nmol/kg/d) was injected to healthy mice without irradiation or chemotherapy for 10 days.
In this experiment we also performed Ki67 stains to document the proliferation of crypt cells in response to elsiglutide (FIG. 7). In healthy mice treated with vehicle Ki67 immunoreactivity was predominantly confined to the crypts where the stem cells reside.

[1] = tested on: BALB/C mice, lethal TBI and allogeneic transplantation; assay: Cage conditions experiment in allogeneic transplant (co-housed, separate, separate plus antibiotics); conditions: caged separately plus antibiotics D-2 to D+14; listed as GLP-2
Text: BALB/C mice underwent lethal TBI and allogeneic transplantation were assigned to 3 cage conditions to perturb their microbial composition: 1) vehicle and GLP-2 treated animals housed together, 2) treatment groups housed separately or 3) treatment groups housed separately and provided with neomycin and polymyxin-b in their drinking water from D-2 to D+14 post-transplant.
We then assessed the role of microbial communities in the protective effect of GLP-2 by conducting an allogeneic transplant with 3 caging conditions; 1) vehicle and GLP-2 treated mice caged together, 2) caged separately, or 3) caged separately plus oral antibiotics.

[2] = tested on: graft-versus-host disease in lethally-irradiated BALB/c mice transplanted from B6 mice; assay: GVHD prevention after major MHC-mismatched allogeneic HSCT (2×10^6 splenic T-cells); conditions: 800 nmol/kg/d
Text: (§1) To determine the effect of elsiglutide treatment on graft-versus-host disease in MHC-mismatched (allogeneic) murine hematopoietic stem-cell transplantation and identify the optimal dosing schedule, in this experiment BALB/c mice were lethally-irradiated and transplanted with bone marrow (5×10^6 cells) from B6 mice plus 2×10^6 splenic T-cells and treated with 800 nmol/kg/d elsiglutide at 4 different treatment schedules (syngeneic transplant and allogeneic transplant with vehicle were used as controls).

[3] = tested on: major MHC-mismatched GVHD model, BALB/c mice; assay: GVHD prevention after allogeneic HSCT with lower T-cell dose (0.5×10^6 splenic T cells)
Text: as §1
In a subsequent experiment, we used the same design as Example 3 but with T-cell depleted (TCD) bone marrow (BM) cells (5×10^6 cells) and a lower T-cell dose (0.5×10^6 splenic T cells) to allow examination of survival differences in a major MHC-mismatched GVHD model (aggressive GVHD model). As treatment effect was similar in this experiment for groups 3-4 and 5-6, these groups were combined into an “elsiglutide pre-transplant” group and an “elsiglutide post-transplant” group for presentation. In addition, animals originally designated to end treatment on D4 resumed treatment on D9 and continued until D30 or SAC. This time, the administration of elsiglutide beginning on D1 post-transplantation rescued 100% of mice from lethal GVHD along with improvement in GVHD scores and weight. […] Control mice (allogeneic transplant with vehicle control) had 100% mortality as expected and syngeneic control mice had 100% survival as expected (FIG. 10). This further supports the hypothesis that the timing of administration of the drug (post- vs. pre-radiation conditioning) is critical.

[4] = tested on: major MHC mismatched allogeneic transplant mice; assay: Mechanistic study in major MHC-mismatched allogeneic transplant (flow cytometry/histology of organs, serum cytokines); conditions: for proportion of Th1 and CD8+ T-cells expressing T-bet (intraepithelial, small intestine): 800 nmol/kg daily subcutaneous; for engraftment of hematopoietic stem cells / donor cells in the spleen: post-transplant elsiglutide vs vehicle, D7
Text: BALB/C mice underwent lethal TBI. (850 cGy Cs137) and transplantation with 5×10^6 T-cell depleted bone marrow cells and 1×10^6 splenic T-cells from B6 donors (major MHC-mismatch model).
To further explore the mechanism behind the treatment effect observed in Example 4, we used the same experimental design as Example 4. […]

[5] = tested on: BALB/c syngeneic transplant recipients after high-dose lethal radiation; assay: Syngeneic transplant after high-dose lethal radiation, different elsiglutide treatment schedules; conditions: for apoptotic bodies within the crypts (TUNEL stain): D4 after radiation
Protocol: This experiment was carried out to determine the effect of daily elsiglutide administration (800 nmol/kg) on weight recovery and bowel weight in response to high dose radiotherapy using different treatment schedules. Syngeneic transplant was performed to rescue the animals from early death due to hematopoietic failure to be able to examine the mice at several time points. […] Treatment with elsiglutide increased small bowel mass after irradiation and syngeneic transplant. The longer the treatment the more pronounced the effect.
TUNEL stain was then performed to assess apoptosis of intestinal epithelial cells on D4 after radiation. We observed a small number of apoptotic bodies within the crypts of all mice at D4 post irradiation and transplantation (FIG. 4).

[6] = tested on: BALB/C mice, syngeneic transplant; assay: Innate immune cells of the lamina propria after syngeneic transplant; conditions: for recovery of mature (P4) lamina propria macrophages: D+7, vs vehicle
Text: To assess the impact of GLP-2 on macrophage maturation in the absence of inflammatory GVHD, BALB/C mice were transplanted with T-cell depleted bone marrow from BALB/C donors and given daily S.C. injections of GLP-2 as mentioned above. […] P1-P4 macrophages were gated as CD45+CD19^−CD3-Ly6G^− and CD11b^+ or CD11c^+. Subsets of the “monocyte-waterfall” were gated as: P1: CD64^−/low Ly6C^+MHC II^− CX3CR1^−/low; P2: CD64^low/+Ly6C^+ MHC II^+ CX3CR1^−/low; P3: CD64^+ Ly6C^−MHC II^+ CX3CR1^−/low; P4: CD64^+Ly6C^−MHC II^+ CX3CR1^+. N=4 per treatment group.
Daily subcutaneous injection of GLP-2 increases the relative abundance of lamina propria ILCs in a process that appears to target type-3 ILCs (ILC3s). ILC3s are important immunomodulators of the lamina propria and intestinal stem-cell (ISC) niche via their production of IL-22, playing a role in ISC maintenance. […] ILCs were gated as CD45^+ CD19^− CD3^− Ly6G^− CD11b^− CD11c^− CD127^+, with subsets being assigned based on Tbet (ILC1), GATA-3 (ILC2) and RORgt (ILC3) expression.

[7] = D+21 post-transplant, listed as Elsiglutide
[8] = post-transplant elsiglutide, allogeneic transplant

elsiglutide
abundance of Bacteroidales S24-7 family (intestinal microbiota; D+14 and D+28): significantly enriched
abundance of Akkermansia muciniphila (intestinal microbiota; D+14 and D+28, listed as GLP-2): significantly enriched; also recorded: increased
β-diversity of stool microbiota by D+28 (intestinal microbiota; continual treatment): shifts in β-diversity
β-diversity clusters of stool microbiota, D+0 vs D+14 (intestinal microbiota; daily S.C. injections, listed as GLP-2): near-complete cluster overlap; also recorded: overlap between D+0 and D+14 samples
Ki67 staining, difference between doses (healthy BALB/c mice; 200-800 nmol/kg/d): no obvious difference
total body weight over baseline (healthy BALB/c mice; 200-800 nmol/kg/d for 10 days, unirradiated): enhanced; also recorded: dose-dependent weight increase
weight of small and large bowel (healthy BALB/c mice; 200-800 nmol/kg/d, by day 10): enhanced; also recorded: dose-dependent increase
Ki67 proliferation staining of crypt cells (healthy BALB/c mice; vs vehicle-treated healthy mice): extended further out of the crypts into the villi
effect of oral antibiotics (neomycin and polymyxin-b) on the survival benefit of treatment [1]: dampened the beneficial effect; also recorded: reduced the efficacy
small bowel weight and length ([2]; 4 treatment schedules, p<0.0001, not dependent on schedule): increase
GVHD outcome ([2]; 2×10^6 T-cell dose, all mice except 1 from −D3-D4 group, euthanized by D8): developed severe GvHD by D6
GVHD scores and weight ([3]; elsiglutide beginning on D1 post-transplantation): improvement
mice rescued from lethal GVHD ([3]; elsiglutide beginning on D1 post-transplantation, through day 35): 100%
mice surviving long term ([3]; post-transplant elsiglutide group, after discontinuation of treatment (day 30)): 50%
GVHD scores and weight in surviving mice ([3]; pre-transplant elsiglutide): still had an effect
mice rescued from death ([3]; pre-transplant elsiglutide, through day 35): 40%
proportion of Th1 and CD8+ T-cells expressing T-bet (intraepithelial, small intestine) [4]: lower proportion
proportion of Th1 and CD8+ T-cells expressing T-bet (intraepithelial, small intestine) ([4]; listed as Elsiglutide): reduced
interferon gamma in the serum ([4]; D+21 after transplant, vs vehicle): lower levels
co-stimulatory molecules and SIRPα on lamina propria macrophages ([4]; D+21 post-transplant): reduced expression of co-stimulatory molecules and increased SIRPα
lamina propria macrophages with tolerogenic/mature phenotype (higher CX3CR1, SIRP-alpha; lower CD80, CD86, CD206) ([4]; D+21 post-transplant): increase
Ly6C^high MHC-II^low immature macrophages [4, 7]: decrease; also recorded: significant reduction
lamina propria macrophages with tolerogenic/mature phenotype (higher CX3CR1, SIRP-alpha; lower CD80, CD86, CD206) [4, 7]: increased prevalence
recovery of innate lymphoid cell (ILC) subtypes in lamina propria ([4]; allogeneic setting, D+14 post-transplant): did not enhance recovery of any ILC subtype
T-cell activation ([4]; day 7 after transplant): reduced
engraftment of hematopoietic stem cells / donor cells in the spleen [4]: did not impair
engraftment of hematopoietic stem cells / donor cells in the spleen ([4]; listed as elsigltide): comparable engraftment
body weight loss [4, 8]: absence of weight loss
small bowel mass and length [4, 8]: increase
lung inflammation, macroscopic assessment (1×) ([4]; vs allogeneic transplant mice with vehicle): fewer areas of inflammation and healthier appearing lung tissue
CD44 expression on gut T-cells ([4]; vs vehicle): higher
expression of adhesion molecules on gut lamina propria T-cells (CD103 on CD4 T-cells) ([4]; vs vehicle): decreased; also recorded: lower
lung infiltrates and alveolar wall thickening (20×) ([4]; vs vehicle): decreased infiltration and less alveolar wall thickening
CD3+ T-cell infiltration in colon and small bowel (immunohistochemistry) ([4]; vs vehicle treated mice): decreased T-cell infiltration with more focal and less diffuse pattern of infiltration and fewer intraepithelial T-cells
T-EMRA cells in CD4 and CD8 T-cells, IEL and LPL ([4]; vs vehicle-treated mice): fewer
alveolar diameter and alveolar wall thickness ([4]; vs vehicle-treated mice): decreased inflammation and alveolar damage
inflammation in the liver portal triads ([4]; vs vehicle-treated mice, 20× magnification): decreased inflammation
weight recovery after high dose radiotherapy ([5]; 800 nmol/kg daily, several treatment schedules): without a clear effect
weight recovery after radiation ([5]; 800 nmol/kg daily, treatment start on D-3): slightly worse than other schedules
small bowel mass after irradiation and syngeneic transplant ([5]; 800 nmol/kg daily, longer treatment more pronounced): increased
apoptotic bodies within the crypts (TUNEL stain) ([5]; pre-transplant treated animals (D-7), vs vehicle): increased abundance of apoptotic bodies
apoptotic bodies within the crypts (TUNEL stain) ([5]; treatment D-7 to D-3 then resumed on D1): very few apoptotic bodies
apoptotic bodies within the crypts (TUNEL stain) ([5]; treatment beginning D1 post-transplant): almost no apoptotic bodies
villi length and crypt depth (histology, distal small bowel) ([5]; after radiation, longer courses most pronounced): enhanced
ILC3 [6]: significant increase
recovery of mature (P4) lamina propria macrophages [6]: improved recovery
recovery of mature (P4) lamina propria macrophages ([6]; listed as GLP-2): increased shift
recovery / relative abundance of lamina propria ILCs ([6]; D+14): improved
recovery / relative abundance of lamina propria ILCs ([6]; D+14, listed as GLP-2): increases
